Data from patent publication US7223745B2, “Proteasome inhibitors and methods of using the same” (Cephalon, Inc., priority 2003, dated 2007).

Tests used:
[1] = biological target: T1, 20S Human Erythrocyte Proteasome (HEP) (Homo sapiens, UniProt P28074); assay: Chymotrypsin-like activity of 20S Human Erythrocyte Proteasome (HEP), IC50 determination; format: biochemical; details: Suc-LLVY-AMC substrate, 15 minutes preincubation at 37° C.
T1 construct: 20S Human Erythrocyte Proteasome (HEP), purchased from Immatics Biotechnologies Inc; purchased Immatics Biotechnologies Inc., Tubingen, Germany; host or cells: human erythrocytes (natural source)
Description: Proteasome chymotrypsin-like activity of compounds of the invention was assayed according to the following procedure.
In 96-well microtiter plates, 20S Human Erythrocyte Proteasome (HEP), purchased from Immatics Biotechnologies Inc., Tubingen, Germany was plated at 0.2 μg/mL (about 0.6 nM catalytic sites) in 0.04% SDS 20 mM Tris buffer. A fluorimetric substrate Suc-LLVY-AMC (succinyl-Leu-Leu-Val-Tyr-7-amido-4-methylcoumarin), purchased from Sigma Inc., St. Louis, Mo., USA was added to a final concentration of 100 μM from a stock solution of 10 mM in dimethylsulfoxide. Reaction volumes were 100 μl per well. After incubation for various periods of time at 37° C., the concentration of free AMC (aminomethylcoumarin) was determined on a Perkin Elmer HTS 7000 Plus microplate reader, excitation 370 nm and emission 465 nm. Proteasome activity was determined under conditions in which substrate hydrolysis increased linearly with time and the change in fluorescence signal was proportional to the concentration of free AMC.
IC50 values are typically defined as the concentration of a compound necessary to produce 50% inhibition of the enzyme's activity. IC50 values are useful indicators of the activity of a compound for its designated use. […] In some embodiments, the inhibitors show some specificity for HEP and the ratio of the IC50 for inhibition of bovine α-chymotrypsin versus the IC50 for inhibition of HEP, i.e, IC50 (α-Chymotripsin)/IC50 (HEP), is greater then about 100.
(§1) Inhibition of the chymotrypsin-like activity of HEP and of bovine α-chymotrypsin was determined by incubating the enzyme with various concentrations of putative inhibitors for 15 minutes at 37° C. (or room temperature for α-chymotrypsin) prior to the addition of substrate. Each experimental condition was evaluated in triplicate, and replicate experiments were performed for the inhibitors described herein.

[2] = tested on: proteasome in Molt-4 cells; assay: Cellular assay for chymotrypsin-like activity of proteasome in Molt-4 cell line, EC50 determination; format: cell-based, human; details: MeOSuc-FLF-AFC substrate, 15 minutes preincubation at 37° C., read-out: MOLT4 (EC50)
Description: The chymotrypsin-like activity of proteasome in Molt-4 cells (human leukemia) was assayed according to the following procedure. A brief description of the method was published previously (Harding et al., J. Immunol., 1995, 155, 1767).
Molt-4 cells were washed and resuspended in HEPES-buffered Saline (5.4 mM KCl, 120 mM NaCl, 25 mM Glucose, 1.5 mM MgSO4, 1 mM Na pyruvate, 20 mM Hepes) and plated in 96-well microtiter white plates to a final concentration of 6×10^6 cells/mL. Then various 5× proteasome inhibitor concentrations (or diluted DMSO for controls), prepared from 250×DMSO solutions by diluting 50-fold using HEPES-buffered saline, were added to the plate to a final 1× concentration. After 15 minutes incubation at 37° C., a fluorimetric cell permeable substrate (MeOSuc-FLF-AFC) (methoxysuccinyl-Phe-Leu-Phe-7-amido-4-trifluoromethylcoumarin) purchased from Enzyme Systems Products, catalogue number AFC-88, was added to each well at a final concentration of 25 μM from a stock solution of 20 mM in DMSO. Reaction volumes were 100 μl per well.
The concentration of free AFC was monitored every 1.5 min for 30 min ([…]) on a Polastar Optima, BMG Labtechnologies microplate reader, using an excitation wavelength of 390 nm and emission wavelength of 520 nm. Proteasome activity was determined under conditions in which substrate hydrolysis increased linearly with time and the change in fluorescent signal was proportional to the concentration of free AFC.
EC50 values are typically defined as the concentration of a compound required to produce an inhibition of the enzyme's activity halfway between the minimum and the maximum response (0% and 85–90% respectively for this assay). EC50 values are useful indicators of the activity of a compound for its designated use.
as §1, with “of” for “of the”, “proteasome in Molt-4 cells” for “HEP and of bovine α-chymotrypsin”, “cells” for “the enzyme”, “C.” for “C. (or room temperature for α-chymotrypsin)”

| SMILES | IC50 [1] [nM] | EC50 [2] [nM] |
| --- | --- | --- |
| CC(C)C[C@H](NC(=O)[C@H](CCCNC(=N)N[N+](=O)[O-])NC(=O)CCCCCCCCCN1C(=O)c2ccccc2C1=O)B1O[C@@H]2C[C@@H]3C[C@@H](C3(C)C)[C@]2(C)O1 [Example 10, 10-(1,3-Dioxo-1,3-dihydro-isoindol-2-yl)-decanamide, N-[(1S)-1-[[[(1R)-1-[(3aS,4S,6S,7aR)-hexahydro-3a,5,5-trimethyl-4,6-methano-1,3,2-benzodioxaborol-2-yl]-3-methylbutyl]amino]carbonyl]-4-[[imino(nitroamino)methyl]amino]butyl]-;] | < 10 | < 200 |
| CC(C)C[C@H](NC(=O)[C@H](CCCNC(=N)N[N+](=O)[O-])NC(=O)CCCCCCCCCCCNC(=O)OC(C)(C)C)B1O[C@@H]2C[C@@H]3C[C@@H](C3(C)C)[C@]2(C)O1 [Example 11, 12-[(1,1-dimethylethoxy)carbonylamino]dodecanamide, N-[(1S)-1-[[[(1R)-1-[(3aS,4S,6S,7aR)-hexahydro-3a,5,5-trimethyl-4,6-methano-1,3,2-benzodioxaborol-2-yl]-3-methylbutyl]amino]earbonyl]-4-[[imino(nitroamino)methyl]amino]butyl]-] | < 10 | < 200 |
| COC(=O)CCCCCCC(=O)N[C@@H](CCCNC(=N)N[N+](=O)[O-])C(=O)N[C@@H](CC(C)C)B1O[C@@H]2C[C@@H]3C[C@@H](C3(C)C)[C@]2(C)O1 [Example 12] | < 10 | < 2000 |
| CC(C)C[C@H](NC(=O)[C@H](CCCNC(=N)N[N+](=O)[O-])NC(=O)CCCCCCCCCCC#N)B1O[C@@H]2C[C@@H]3C[C@@H](C3(C)C)[C@]2(C)O1 [Example 13, 11-Cyanoundecanamide, N-[(1S)-1-[[[(1R)-1-[(3aS,4S,6S,7aR)-hexahydro-3a,5,5-trimethyl-4,6-methano-1,3,2-benzodioxaborol-2-yl]-3-methylbutyl]amino]carbonyl]-4-[[imino(nitroamino)methyl]amino]butyl]-.] | < 10 | < 200 |
| CC(C)C[C@H](NC(=O)[C@H](CCCNC(=N)N[N+](=O)[O-])NC(=O)CCCCCCCCC#N)B1O[C@@H]2C[C@@H]3C[C@@H](C3(C)C)[C@]2(C)O1 [Example 14, 9–Cyanononamide, N-[(1S)-1-[[[(1R)-1-[(3aS,4S,6S,7aR)-hexahydro-3a,5,5-trimethyl-4,6-methano-1,3,2-benzodioxaborol-2-yl]-3-methylbutyl]amino]carbonyl]-4-[[imino(nitroamino)methyl]amino]butyl]] | < 10 | < 200 |
| CC(=O)NCCCCCC(=O)N[C@@H](CCCNC(=N)N[N+](=O)[O-])C(=O)N[C@@H](CC(C)C)B1O[C@@H]2C[C@@H]3C[C@@H](C3(C)C)[C@]2(C)O1 [Example 15, 6-(Acetylamino)hexanamide, N-[(1S)-1-[[[(1R)-1-[(3aS,4S,6S,7aR)-hexahydro-3a,5,5-trimethyl-4,6-methano-1,3,2-benzodioxaborol-2-yl]-3-methylbutyl]amino]carbonyl]-4-[[imino(nitroamino)methyl]amino]butyl]] | < 100 |  |
| CC(C)C[C@H](NC(=O)[C@H](CCCNC(=N)N[N+](=O)[O-])NC(=O)CCCCCCCCCCCN1C(=O)c2ccccc2C1=O)B1O[C@@H]2C[C@@H]3C[C@@H](C3(C)C)[C@]2(C)O1 [Example 16] | < 10 | < 200 |
| CCS(=O)(=O)NCCCCCC(=O)N[C@@H](CCCNC(=N)N[N+](=O)[O-])C(=O)N[C@@H](CC(C)C)B1O[C@@H]2C[C@@H]3C[C@@H](C3(C)C)[C@]2(C)O1 [Example 17, 6-(Ethanesulfonylamino)hexanamide, N-[(1S)-1-[[[(1R)-1-[(3aS,4S,6S,7aR)-hexahydro-3a,5,5-trimethyl-4,6-methano-1,3,2-benzodioxaborol-2-yl]-3-methylbutyl]amino]carbonyl]-4-[[imino(nitroamino)methyl]amino]butyl]] | < 100 | > 10000 |
| CC(C)C[C@H](NC(=O)[C@H](CCCNC(=N)N[N+](=O)[O-])NC(=O)CCCCCNS(=O)(=O)c1ccccc1)B1O[C@@H]2C[C@@H]3C[C@@H](C3(C)C)[C@]2(C)O1 [Example 18, 6-Benzenesulfonylaminohexanamide, N-[(1S)-1-[[[(1R)-1-[(3aS,4S,6S,7aR)-hexahydro-3a,5,5-trimethyl-4,6-methano-1,3,2-benzodioxaborol-2-yl]-3-methylbutyl]amino]carbonyl]-4-[[imino(nitroamino)methyl]amino]butyl]] | < 10 | < 2000 |
| CCS(=O)(=O)NCCCCCCCC(=O)N[C@@H](CCCNC(=N)N[N+](=O)[O-])C(=O)N[C@@H](CC(C)C)B1O[C@@H]2C[C@@H]3C[C@@H](C3(C)C)[C@]2(C)O1 [Example 19] | < 10 | < 200 |
| CC(C)C[C@H](NC(=O)[C@H](CCCNC(=N)N[N+](=O)[O-])NC(=O)CCCCCCCCCCC#N)B(O)O [Example 20, Boronic acid, [(1R)-1-[[(2S)-5-[[imino(nitroamino)methyl]amino]-2-[(11-Cianoundecanoyl)amino]-1-oxopentyl]amino]-3-methylbutyl]] | < 10 | < 10000 |
| CC(C)C[C@H](NC(=O)[C@H](CCCNC(=N)N[N+](=O)[O-])NC(=O)CCCCCCCCC#N)B(O)O [Example 21, Boronic acid, [(1R)-1-[[(2S)-5-[[imino(nitroamino)methyl]amino]-2-[(9-Cyanononanoyl)amino]-1-oxopentyl]amino]-3-methylbutyl]] | < 10 | > 10000 |
| COC(=O)CCCCCCC(=O)N[C@@H](CCCNC(=N)N[N+](=O)[O-])C(=O)N[C@@H](CC(C)C)B(O)O [Example 22, Boronic acid, [(1R)-1-[[(2S)-5-[[imino(nitroamino)methyl]amino]-2-[[7-(methoxycarbonyl)heptanoyl]amino]-1-oxopentyl]amino]-3-methylbutyl]] | < 10 | > 10000 |
| CC(C)C[C@H](NC(=O)[C@H](CCCNC(=N)N[N+](=O)[O-])NC(=O)CCCCCCCCCN1C(=O)c2ccccc2C1=O)B(O)O [Example 23] | < 10 | < 200 |
| CC(=O)NCCCCCC(=O)N[C@@H](CCCNC(=N)N[N+](=O)[O-])C(=O)N[C@@H](CC(C)C)B(O)O [Example 24, Boronic acid, [(1R)-1-[[(2S)-5-[[imino(nitroamino)methyl]amino]-2-[[6-(acetylamino)hexanoyl]amino]-1-oxopentyl]amino]-3-methylbutyl]] | < 10 | > 10000 |
